Source: patent US20230287044A1, “NOVEL ANTIBACTERIAL PEPTIDE AND USE THEREOF” (priority 2020, published 2023)
Values after ≈ are worked out from the molar mass of the structure shown. Square brackets hold non-standard residues; d marks the D form. Peptide text beside a SMILES is read from it.

Columns and labels:
[1] = Solubility of antibacterial peptides in solution; format: physicochemical
[2] = tested on: MRAB (A. baumannii) ATCC BAA 1605; format: cell-based, Acinetobacter baumannii; settings: ATCC BAA 1605, 18 h
Outline: (§1)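 Mid-log cultures grown in CAMHB and diluted to 1× 10^6 cfu/ml in PBS were mixed with an equal volume of peptide in CAMHB (80 µM to 0.63 µM twofold dilutions). MIC taken as the mean of three independent experiments.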

[3] = tested on: MRSA (S. aureus) KCCM 40510; format: cell-based, Staphylococcus aureus; settings: KCCM 40510, 18 h
Outline: as §1

[4] = tested on: MRPA (P. aeruginosa) CCARM 2180; format: cell-based, Pseudomonas aeruginosa; settings: CCARM 2180, 18 h
Outline: as §1

[5] = tested on: VRE (E. faecalis) ATCC 51575; format: cell-based, Enterococcus faecalis; settings: ATCC 51575, 18 h
Outline: as §1

CC[C@@H](C)[C@@H](NC(=O)[C@@H](Cc1c[nH]c2ccccc12)NC(=O)[C@H](NC(=O)[C@@H](CC(C)C)NC(=O)[C@H](N)Cc1c[nH]c2ccccc12)C(C)C)C(=O)N[C@H](Cc1c[nH]c2ccccc12)C(=O)N[C@H](CCCNC(=N)N)C(=O)N[C@H](CCCNC(=N)N)C(N)=O [KSH32, wlvwiwrr] (H-[dW][dL][dV][dW][dI][dW][dR][dR]-NH2; N-terminus assumed)
solubility at 12 h ([1]; aqueous buffer): 25 µM (≈ 30.3 µg/mL) | solubility at 12 h ([1]; plasma or biological fluid): 50 µM (≈ 60.7 µg/mL) | solubility at 12 h ([1]; water): > 2000 µM | MIC MRAB (A. baumannii) ATCC BAA 1605 [2]: 1.25 µM (≈ 1.52 µg/mL) | MIC MRSA (S. aureus) KCCM 40510 [3]: 1.25 µM (≈ 1.52 µg/mL) | MIC MRPA (P. aeruginosa) CCARM 2180 [4]: >5 µM | MIC VRE (E. faecalis) ATCC 51575 [5]: 1.25 µM (≈ 1.52 µg/mL)

CC(C)[C@@H](NC(=O)[C@H](N)Cc1c[nH]c2ccccc12)C(=O)N[C@@H](C(=O)N[C@H](Cc1c[nH]c2ccccc12)C(=O)N[C@H](Cc1c[nH]c2ccccc12)C(=O)N[C@@H](C(=O)N[C@H](CCCNC(=N)N)C(=O)N[C@H](CCCNC(=N)N)C(=O)N[C@H](CCCNC(=N)N)C(N)=O)C(C)C)C(C)C [KSH40, wvvwwvrrr] (H-[dW][dV][dV][dW][dW][dV][dR][dR][dR]-NH2; N-terminus assumed)
solubility at 12 h ([1]; aqueous buffer): ≥ 100 µM | solubility at 12 h ([1]; plasma or biological fluid): 100 µM (≈ 134 µg/mL) | solubility at 12 h ([1]; water): > 2000 µM | MIC MRAB (A. baumannii) ATCC BAA 1605 [2]: 1.25 µM (≈ 1.68 µg/mL) | MIC MRSA (S. aureus) KCCM 40510 [3]: 1.25 µM (≈ 1.68 µg/mL) | MIC MRPA (P. aeruginosa) CCARM 2180 [4]: 5 µM (≈ 6.71 µg/mL) | MIC VRE (E. faecalis) ATCC 51575 [5]: 1.25 µM (≈ 1.68 µg/mL)

CC[C@@H](C)[C@@H](NC(=O)[C@@H](Cc1c[nH]c2ccccc12)NC(=O)[C@H](NC(=O)[C@@H](CC(C)C)NC(=O)[C@@H](Cc1c[nH]c2ccccc12)NC(=O)[C@H](N)CC(=O)O)C(C)C)C(=O)N[C@H](Cc1c[nH]c2ccccc12)C(=O)N[C@H](CCCNC(=N)N)C(=O)N[C@H](CCCNC(=N)N)C(=O)N[C@H](CCCNC(=N)N)C(N)=O [KSH36, dwlvwiwrrr] (H-[dD][dW][dL][dV][dW][dI][dW][dR][dR][dR]-NH2; N-terminus assumed)
solubility at 12 h ([1]; aqueous buffer): > 200 µM | solubility at 12 h ([1]; plasma or biological fluid): 100 µM (≈ 148 µg/mL) | solubility at 12 h ([1]; water): > 2000 µM | MIC MRAB (A. baumannii) ATCC BAA 1605 [2]: 5 µM (≈ 7.42 µg/mL) | MIC MRSA (S. aureus) KCCM 40510 [3]: 25 µM (≈ 37.1 µg/mL) | MIC MRPA (P. aeruginosa) CCARM 2180 [4]: >5 µM | MIC VRE (E. faecalis) ATCC 51575 [5]: 2.5 µM (≈ 3.71 µg/mL)
